The values below come from US20050215772A1, “Furanone derivatives and methods of making same” (priority 2002, published 2005).

For assay [1], the system named is AHL mediated quorum sensing. In kind it is cell-based.
The test system of a further assay is Staphylococcus aureus. Kind of assay: Growth of Staphylococcus aureus. In kind it is cell-based. On the procedure: The growth of Staphylococcus aureus against furanones was tested in sidearm flasks. One percent of an overnight culture was added to the growth media, Nutrient Broth, containing furanones at the concentrations 1-50 μg/ml. The bacteria were incubated at 37 C and growth was measured at 610 nm.

The next assay concerns AI-2 pathway. In words: microbe, parasite or virus in culture. The following applies: Vibrio harveyi, read-out: AI-2 (% of control). In kind it is cell-based, V. harveyi.
Assay [2] is classed as cell-based, V. vulnificus.
The subject of a further assay is V. vulnificus. In words: Attachment by V. vulnificus. Format: cell-based.

Consider `CCCC(Br)C1=CC(=C(Br)Br)N(c2ccccc2)C1=O` (centres unmarked) [drawing 24], for which the AHL entry in assay [1] was “+ + + +”. The “S. aureus (% of control)” value with Staphylococcus aureus (growth for 10 hrs, concentration not given) is recorded as 0% growth at ug/ml for 10 hrs % of control.

`CCCCC1=C(Br)/C(=C/Nc2ccccc2)OC1=O`: the AHL entry in assay [1] is given as “+ + + +”. Further, the activity at 20 µg/mL in the assay with AI-2 pathway worked out at 61%. Further, in the assay on Staphylococcus aureus (growth, 50 ug/ml), the “S. aureus (% of control)” value is “No effect 50 μg/ml”.

`CC1(O)NC(=O)C=C1c1ccccc1` (centres unmarked): the activity at 100 µg/mL with AI-2 pathway came to 39%. Besides, the activity at 25 µg/mL in the assay with Staphylococcus aureus (Staphylococcus aureus, growth, 25 μg/ml, read-out: S. aureus (% of control)) is 102%.

With `C[C@@]1(Nc2ccccc2)OC(=O)C=C1N`, the AHL result in assay [1] is “+ + +”. In addition, in the assay with AI-2 pathway, the activity at 5 µg/mL was 80%, the activity at 10 µg/mL came out at 57% and the activity at 50 µg/mL amounted to 26%.

In the case of `CC1=CC(C)(Nc2ccccc2)OC1=O` (centres unmarked), the AHL entry in assay [1] was “+ +”. In addition, the activity at 100 µg/mL in the assay with AI-2 pathway was 50%. Also, the “S. aureus (% of control)” value with Staphylococcus aureus (growth, 50 ug/ml) was “No effect 50 μg/ml”.

On to `CCCC(Br)C1=CC(=C(Br)Br)N(c2ccccc2)C1=O` (centres unmarked) [drawing 37], for which the “reduction in swimming motility” value in assay [2] was 40-50% reduction in swimming motility in V. cholerae and V. vulnificus. In the assay with V. vulnificus, the reduction in attachment is given as 30% reduction in attachment by V. vulnificus.

Regarding `C/C=C1\NC(=O)C=C1C`, in assay [1], the AHL entry is on record as “+ + +”. The “S. aureus (% of control)” value in the assay with Staphylococcus aureus (growth, 50 ug/ml) is recorded as “No effect 50 μg/ml”.

On to `CCCCC1=CC(=C(Br)Br)N(CCOS(=O)(=O)c2ccc(C)cc2)C1=O`, for which, in assay [1], the AHL result is “+ +”. Besides, the “S. aureus (% of control)” value in the assay with Staphylococcus aureus (growth, 50 ug/ml) is given as “No effect (50 μg/ml)”.

Consider `CCCCC1=CC(=C(Br)Br)N(c2ccccc2)C1=O`, for which the AHL entry in assay [1] was “+ + +”.

As for `CCCCCCCC1=CC(=O)N(c2ccccc2)C1(O)CBr` (centres unmarked), the AHL result in assay [1] was “+ + +”.

As for `O=C1C=C(Br)/C(=C/Nc2ccccc2)O1` [drawing 26], the AHL result in assay [1] is recorded as “+ + +”. Also, the activity at 50 µg/mL is 2% with AI-2 pathway and 104% with Staphylococcus aureus (Staphylococcus aureus, growth, 50 ug/ml, read-out: S. aureus (% of control)).

`O=C1C=C(Br)/C(=C/Nc2ccccc2)O1` [drawing 35]: in assay [2], the “reduction in swimming motility” value was 40-50% reduction in swimming motility in V. cholerae and V. vulnificus. For the same compound, the reduction in attachment with V. vulnificus is on record as 30% reduction in attachment by V. vulnificus.

Turning to `CCCCC1=CC(=C(Br)Br)N(CCOC(=O)C(F)(F)F)C1=O`, the AHL entry in assay [1] is reported as “+ + +”. Besides, the “S. aureus (% of control)” value in the assay on Staphylococcus aureus (growth, 50 ug/ml) is “No effect (50 μg/ml)”.
